# Data as given in publication PMC10698194 (Nature Communications, 2023).
# Where “and” joins values, the source holds several entries; their conditions need not be identical. Identical values can stand only once. Like-named read-outs stand apart in the source and are kept apart here. Bridge positions count the residues as written; N and C are the ends. Square brackets hold non-standard residues; d marks the D form. Peptide text beside a SMILES is read from it. * marks the point of attachment. X1 = C=CCN1CC[C@]23c4c5ccc(O)c4O[C@H]2[C@H](N*)CC[C@@]3(O)[C@H]1C5
# How the values were obtained:
# [1] = biological target: T1, human KOR E297A (Homo sapiens, UniProt P41145, E297A); test: BRET β-arrestin-2 biosensor assay; format: cell-based; conditions: KOR(E297A), Log [drug], individual replicates
# T1 construct: FLAG; expressed in transfected cells; host or cells: HEK293T
# [2] = biological target: T2, human KOR L309A (Homo sapiens, UniProt P41145, L309A); format: cell-based; conditions: KOR(L309A), Log [drug], individual replicates
# T2 construct: FLAG; expressed in transfected cells; host or cells: HEK293T
# [3] = biological target: T1, human KOR E297A; format: cell-based; conditions: KOR(E297A), Log [drug], individual replicates
# [4] = biological target: T3, human KOR D138A (Homo sapiens, UniProt P41145, D138A); test: cAMP inhibition assay normalized to salvinorin A; format: cell-based
# T3 construct: expressed in transfected cells
# [5] = biological target: T4, human KOR E209A (Homo sapiens, UniProt P41145, E209A); format: cell-based; conditions: KOR(E209A), Log [drug], individual replicates
# T4 construct: FLAG; expressed in transfected cells; host or cells: HEK293 / HEK293T, transient
# [6] = biological target: T5, mouse KOR, Gαi2 (Mus musculus, UniProt P33534); test: TRUPATH BRET G protein assay, Gαi2; format: cell-based
# T5 construct: expressed in transfected cells; host or cells: HEK293T (ATCC, CRL-3216), transient
# [7] = biological target: human KOR (Homo sapiens, UniProt P41145); test: cell-based; design: expressed in transfected cells; host or cells: HEK293, transient
# [8] = biological target: T6, human MOR (Homo sapiens, UniProt P35372); test: [35S]GTPγS binding assay, CHO membranes; format: biochemical; conditions: relative to DAMGO
# T6 construct: expressed in transfected cells
# T6 sequence (P35372 whole entry): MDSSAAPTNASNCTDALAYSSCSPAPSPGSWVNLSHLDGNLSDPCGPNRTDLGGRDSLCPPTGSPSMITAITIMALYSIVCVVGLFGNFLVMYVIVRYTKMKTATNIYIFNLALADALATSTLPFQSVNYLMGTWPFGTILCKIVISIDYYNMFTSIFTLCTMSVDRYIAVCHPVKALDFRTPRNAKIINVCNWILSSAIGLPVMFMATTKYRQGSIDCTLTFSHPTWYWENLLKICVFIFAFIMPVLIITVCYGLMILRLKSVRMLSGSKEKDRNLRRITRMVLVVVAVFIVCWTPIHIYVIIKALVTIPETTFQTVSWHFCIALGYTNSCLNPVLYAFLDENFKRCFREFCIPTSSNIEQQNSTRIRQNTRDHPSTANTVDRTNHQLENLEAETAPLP
# T4 sequence (P41145 whole entry E209A): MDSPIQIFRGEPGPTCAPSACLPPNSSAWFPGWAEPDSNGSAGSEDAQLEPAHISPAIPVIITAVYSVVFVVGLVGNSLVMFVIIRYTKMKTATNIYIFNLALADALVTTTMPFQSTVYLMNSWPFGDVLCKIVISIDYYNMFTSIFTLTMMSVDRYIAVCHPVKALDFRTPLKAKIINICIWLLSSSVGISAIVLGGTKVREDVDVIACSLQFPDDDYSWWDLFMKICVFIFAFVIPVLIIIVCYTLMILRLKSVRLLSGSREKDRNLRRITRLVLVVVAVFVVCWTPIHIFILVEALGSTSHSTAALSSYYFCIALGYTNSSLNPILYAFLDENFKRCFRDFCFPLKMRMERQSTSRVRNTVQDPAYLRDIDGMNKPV
# T1 sequence (P41145 whole entry E297A): as the sequence (P41145 whole entry E209A) above, with A209E, E297A counted along it
# T3 sequence (P41145 whole entry D138A): as the sequence (P41145 whole entry E209A) above, with D138A, A209E counted along it
# Chain of human KOR (P41145 whole entry): as the sequence (P41145 whole entry E209A) above, with A209E counted along it
# T5 sequence (P33534 whole entry): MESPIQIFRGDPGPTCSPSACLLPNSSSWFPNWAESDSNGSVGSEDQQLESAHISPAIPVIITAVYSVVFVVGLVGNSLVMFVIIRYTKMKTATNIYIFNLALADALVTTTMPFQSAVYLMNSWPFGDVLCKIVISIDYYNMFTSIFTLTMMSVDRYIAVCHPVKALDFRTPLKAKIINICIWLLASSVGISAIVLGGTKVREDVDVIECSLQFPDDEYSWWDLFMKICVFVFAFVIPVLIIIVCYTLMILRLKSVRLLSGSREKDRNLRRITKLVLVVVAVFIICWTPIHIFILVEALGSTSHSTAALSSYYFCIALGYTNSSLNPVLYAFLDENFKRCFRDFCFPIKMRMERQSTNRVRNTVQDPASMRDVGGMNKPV
# T2 sequence (P41145 whole entry L309A): as the sequence (P41145 whole entry E209A) above, with A209E, L309A counted along it
molecule,measurement,setting,value
C=CCN1CC[C@]23c4c5ccc(O)c4O[C@H]2[C@H](NC(=O)[C@@H](Cc2ccccc2)NC(=O)[C@@H](NC(=O)[C@@H]2CSCC(=O)N[C@@H](Cc4ccc(O)cc4)C(=O)N[C@@H](C)C(=O)N[C@H](Cc4ccc(O)cc4)C(=O)N[C@@H]([C@@H](C)O)C(=O)N[C@@H]([C@@H](C)O)C(=O)N2)[C@@H](C)O)CC[C@@]3(O)[C@H]1C5 [DNCP-βNalA(1)] ({CH2CO}-YA[dY]TTCT[dF]-X1; thioether N-6),βarrestin2-reruitment,[1]; M = -5,64.952 and 70.3776 and 70.3029
same,βarrestin2-reruitment,[1]; M = -6,64.952 (2×) and 65.8365 and 61.2954 and 65.7763 and 64.7423
same,βarrestin2-reruitment,[1]; M = -7,57.4606 and 53.3486 and 51.3006 and 53.3686 and 55.3202
same,βarrestin2-reruitment,[1]; M = -8,54.25 and 56.7544 and 54.4026 and 55.3202
same,βarrestin2-reruitment,[1]; M = -9,42.4779 and 34.0491 and 29.508 and 29.5871 and 25.4512 and 32.8461
same,βarrestin2-reruitment,[1]; M = -10,4.532 and 6.8027 and 4.772
same,Gi1-activation,[2]; M = -5,98.4884 and 94.3563
same,Gi1-activation,[2]; M = -6,92.9882 and 93.5382 and 87.9287
same,Gi1-activation,[2]; M = -7,91.3288 and 89.81 and 94.9619
same,Gi1-activation,[2]; M = -8,94.9619 and 94.0882
same,Gi1-activation,[3]; M = -5,95.0144
same,Gi1-activation,[3]; M = -6,93.9606 and 93.3336 and 93.3709
same,Gi1-activation,[3]; M = -7,92.7066 and 94.3563
same,Gi1-activation,[3]; M = -8,92.7066 and 93.9606 and 93.6983
same,"response at D138A, Figure S26",[4]; Log [ligand] (M) -5,110.03 and 108.68 and 121.152 and 120.937 and 117.964 and 108.941 and 117.457
same,"response at D138A, Figure S26",[4]; Log [ligand] (M) -6,96.1567 and 103.986 and 100.687 and 108.287 and 104.111 and 103.774 and 93.2795 and 106.739
same,"response at D138A, Figure S26",[4]; Log [ligand] (M) -7,95.0352 and 99.2926 and 97.756 and 110.621 and 103.099 and 111.681 and 84.8048 and 93.7365
same,"response at D138A, Figure S26",[4]; Log [ligand] (M) -8,92.5638 and 91.2347 and 98.8959 and 103.021 and 118.301 and 103.099 and 100.466 and 95.1074
same,"response at D138A, Figure S26",[4]; Log [ligand] (M) -9,68.4109 and 66.6248 and 86.0309 and 72.0259 and 98.5019 and 110.7 and 66.4429 and 85.6772
same,Gi1-activation,[5]; M = -6,95.0321
same,Gi1-activation,[5]; M = -7,98.4538 and 95.0321 and 92.9731 (2×)
same,Gi1-activation,[5]; M = -9,93.8915 and 90.4927
"CC(C)=CCN1CCC2(C)c3cc(O)ccc3CC1C2C (centres unmarked) [Pentazocine, pentazocine]","Gαi2, normalized response (single replicate values)",[6]; Log [ligand] (M) -5,63.0631 and 33.772 and 78.2944 and 66.7992 and -8.535 and 43.2571 and 15.0067 and 36.1153
same,"Gαi2, normalized response (single replicate values)",[6]; Log [ligand] (M) -6,81.8094 and 43.1452 and 67.7496 and 22.5401 and 66.7992 and 32.8986 (2×) and 41.9735
same,"Gαi2, normalized response (single replicate values)",[6]; Log [ligand] (M) -7,33.772 (2×) and 29.0855 and 9.357 and 40.4321 and 39.4904 and 59.2657 and 49.0034
same,"Gαi2, normalized response (single replicate values)",[6]; Log [ligand] (M) -8,36.1153 and 16.1974 and 29.0855 and -23.6023 and 39.4904 and 26.3069 and 33.8403 and 44.3168
same,"Gαi2, normalized response (single replicate values)",[6]; Log [ligand] (M) -9,-10.7504 and 16.1974 and 32.6004 and -17.0105 and 12.1816 and 27.2485 and 41.3738 and 15.0258
same,"Gαi2, normalized response (single replicate values)",[6]; Log [ligand] (M) -10,-1.377 and -15.4369 and -0.06023 (2×) and -7.594 and -5.71 and -13.0937
same,"Gαi2, normalized response (single replicate values)",[6]; Log [ligand] (M) -11,-3.721 and -2.549 and 15.0258 and 1.823 and -26.4273 and -45.2609 and 40.4321 and -15.4369
same,"Gαi2, normalized response (single replicate values)",[6]; Log [ligand] (M) -12,20.884 and 5.653 and -14.2653 and 5.59 and 13.1233 and -22.6606 and 37.607 and -1.377
same,Gαi2 (Figure 3j),"[6]; source data of Figure 3j, U50,488 about 100",42.2346
same,EC50,[7],1010 nM
same,β-arrestin-2 (Figure 3j),[7],38
same,Emax,"[7]; HEK293, read-out: Emax β-arrestin-1 recruitment",38 ± 24%
DAMGO,Emax (%) MOR,[8],100%
